This is an account of results in patent publication US5605892A, “Compositions of arginine amide with cyclodextrin of caffeine, and methods of use” (priority 1993, dated 1997).

The subject of series [1] is fibrin formation in anterior sac. As to the kind of experiment: Inhibition of fibrin formation in anterior sac after argon laser irradiation of iris, slit lamp evaluation. The class given is in vivo, colored house rabbits. An excerpt:
Reference Example--Argatroban concentration and inhibition of fibrin formation in anterior sac
Animal used: 18 colored house rabbits weighing 2 kg and showing no abnormality in the eyes by visual observation
Drug used: test drug (a solution of argatroban at a concentration of 0.1 W/V % or 0.2 W/V % prepared according to the eye drop of Example 1)
: control (physiological saline)
Test: Fibrin was formed in anterior sac by irradiation at four sites in iris with argon laser (AC-3500, Nidek). The irradiation was conducted at a spot size of 100 μm, time 0.2 sec and output 1 watt. The fibrin in anterior sac was evaluated according to the evaluation criteria given below for the visual observation with time with a slit lamp after the irradiation up to 3 hours thereafter.
The test drug argatroban was administered 7 times by installation of 50 μl of the drug to one of the eyes every 10 minutes beginning from 30 minutes before the laser irradiation to 30 minutes after the irradiation, and physiological saline was administered to the other eye.
Slit lamp observation: The presence of fibrin at the 4 sites irradiated with laser was graded (0 or 1). When the fibrin amount was great, the grade was doubled. The fibrin in pupil region was graded in five stages of from 0 to 4 points. The full mark was; irradiation site: 4 points×2+pupil region: 4 points=12 points.

The nature of series [2]: Stability test: aqueous solutions in glass ampoules preserved in shade or under light exposure. The class given is physicochemical. Conditions: argatroban with caffeine. An excerpt: Aqueous solutions (pH 7) containing 0.05 W/V % or 0.1 W/V % argatroban and having the formulations 1-6 shown in Table 2 below were filled in glass ampoules and preserved in shade or under light exposure of […]. Each solution was examined for pH, appearance, insoluble matter and residual content of argatroban.

Series [3] is described as follows: Stability of aqueous solution of argatroban in a brown bottle (background statement). The class given is physicochemical. The method, then:
(§1) Taking one of the aforementioned arginine amides, (2R,4R)4-methyl-1-[N^2 -((RS)-3-methyl-1,2,3,4-tetrahydro-8-quinolinesulfonyl)-L-arginyl]-2-piperidinecarboxylic acid monohydrate (generally called argatroban) as an example, it is used at a concentration of 1 mg/ml or above as an eye drop or entoptic perfusate for the above-mentioned purpose.

A short description of series [4]: Solubility test of argatroban in water with various compounds (shaken with excess argatroban, HPLC). The class given is physicochemical. Conditions: for solubility thermodynamic at 12 h: phosphate buffer, pH 7, aqueous buffer, phosphate buffer pH 7.0, 25° C. The method, then: The solubility of argatroban in water was determined by the use of various compounds.
An excess amount of argatroban was added to a phosphate buffer (pH 7.0) containing a compound at a concentration of 1.0 W/V % and the mixture was shaken at 25° C. for 12 hours. The amount of the argatroban dissolved in this solution was measured by HPLC to determine the solubility.

Series [5] can be described thus: Solubility of argatroban in water (background statement). The class given is physicochemical. As to conditions: 25° C., pH range 7.2-7.8. The method, then:
as §1

Series [6] is described as follows: Eye irritation examination. The series is classed as in vivo, house rabbits. An excerpt:
Eye irritation caused by the respective, aforementioned solutions of α-cyclodextrin, β-cyclodextrin, γ-cyclodextrin and caffeine was examined using house rabbits.

In the next series the test system is fibrin formation. Conditions: administration for a few weeks after the operation, cited from earlier work.
Setting [7] is: solutions of Example 1, compound at 1.0 W/V %.

As a reminder, the solubility (thermodynamic) is the concentration in solution at equilibrium with solid. One may read the solubility as how much of the substance goes into solution per volume. `CC1CNc2c(cccc2S(=O)(=O)N[C@@H](CCCNC(=N)N)C(=O)N2CC[C@@H](C)C[C@@H]2C(=O)O)C1.O` (mixture of isomers) [argatroban, (2R,4R)4-methyl-1-[N^2-((RS)-3-methyl-1,2,3,4-tetrahydro-8-quinolinesulfonyl)-L-arginyl]-2-piperidinecarboxylic acid monohydrate]: the “percent inhibition of fibrin formation” value in series [1] (0.1 W/V % argatroban, 50 μl instilled 7 times every 10 minutes) is recorded as “about 50%”. In addition, the “inhibition of fibrin formation at every measurement point” value in series [1] (0.1 W/V % argatroban, up to 3 hours after laser irradiation) was “significantly inhibited”. In addition, the “inhibition of fibrin formation” value in series [1] (0.2 W/V % argatroban, 50 μl instilled 7 times every 10 minutes) is listed as “completely inhibited”. Also, the stability against light result in series [2] is “improved by caffeine”. Further, in series [3], the “preservation stability of aqueous solution” value is listed as “can be preserved stably in a brown bottle”. In addition, the solubility (thermodynamic) at 12 h in series [4] (argatroban with caffeine 1.0 W/V %) came to 2000 µg/mL; in series [4] (argatroban with α-cyclodextrin 1.0 W/V %), 1340 µg/mL; in series [4] (argatroban with β-cyclodextrin 1.0 W/V %) it was 2590 µg/mL; in series [4] (argatroban with γ-cyclodextrin 1.0 W/V %) it was 1320 µg/mL; in series [4] (argatroban, no compound added), 930 µg/mL. Further, the figures for the “solubility of argatroban relative to that obtained when no compound was added” value in series [4] (with caffeine 1.0 W/V %) and in series [4] (with β-cyclodextrin 1.0 W/V %) were “about twice” and “about thrice”, respectively. Moreover, the improvement in solubility entry in series [4] (with α-, β-, γ-cyclodextrin and caffeine) is listed as “superior improvement in solubility”. Further, the solubility in series [5] was around 900 µg/mL.

Consider `Cn1c(=O)c2c(ncn2C)n(C)c1=O` [caffeine], for which the Eye irritation result in series [6] (setting [7]) is “no specific problems, thus showing no harmful effect on the eye tissue”.

In the case of `COc1ccc2c(c1)c(CC(=O)O)c(C)n2C(=O)c1ccc(Cl)cc1` [indomethacin], in the series with fibrin formation, the “effect after entoptic operation” value was “has not shown dependable effects”. Moreover, the “adverse effects after entoptic operation” value with fibrin formation (though not often) is on record as “delay in healing of wounds or disorders in cornea”.

On to `OC[C@H]1O[C@@H]2O[C@H]3[C@H](O)[C@@H](O)[C@@H](O[C@H]4[C@H](O)[C@@H](O)[C@@H](O[C@H]5[C@H](O)[C@@H](O)[C@@H](O[C@H]6[C@H](O)[C@@H](O)[C@@H](O[C@H]7[C@H](O)[C@@H](O)[C@@H](O[C@H]1[C@H](O)[C@H]2O)O[C@@H]7CO)O[C@@H]6CO)O[C@@H]5CO)O[C@@H]4CO)O[C@@H]3CO` [α-cyclodextrin], for which the Eye irritation entry in series [6] (rabbit, in vivo) was “no specific problems, thus showing no harmful effect on the eye tissue”.

In the case of `OC[C@H]1O[C@@H]2O[C@H]3[C@H](O)[C@@H](O)[C@@H](O[C@H]4[C@H](O)[C@@H](O)[C@@H](O[C@H]5[C@H](O)[C@@H](O)[C@@H](O[C@H]6[C@H](O)[C@@H](O)[C@@H](O[C@H]7[C@H](O)[C@@H](O)[C@@H](O[C@H]8[C@H](O)[C@@H](O)[C@@H](O[C@H]1[C@H](O)[C@H]2O)O[C@@H]8CO)O[C@@H]7CO)O[C@@H]6CO)O[C@@H]5CO)O[C@@H]4CO)O[C@@H]3CO` [β-cyclodextrin], in series [6] (rabbit, in vivo), the Eye irritation result was “no specific problems, thus showing no harmful effect on the eye tissue”.

`OC[C@H]1O[C@@H]2O[C@H]3[C@H](O)[C@@H](O)[C@@H](O[C@H]4[C@H](O)[C@@H](O)[C@@H](O[C@H]5[C@H](O)[C@@H](O)[C@@H](O[C@H]6[C@H](O)[C@@H](O)[C@@H](O[C@H]7[C@H](O)[C@@H](O)[C@@H](O[C@H]8[C@H](O)[C@@H](O)[C@@H](O[C@H]9[C@H](O)[C@@H](O)[C@@H](O[C@H]1[C@H](O)[C@H]2O)O[C@@H]9CO)O[C@@H]8CO)O[C@@H]7CO)O[C@@H]6CO)O[C@@H]5CO)O[C@@H]4CO)O[C@@H]3CO` [γ-cyclodextrin]: the Eye irritation entry in series [6] (setting [7]) is recorded as “no specific problems, thus showing no harmful effect on the eye tissue”.
